# Reference: paper PMC8658016, “Identification of New Compounds with Anticonvulsant and Antinociceptive Properties in a Group of 3-substituted (2,5-dioxo-pyrrolidin-1-yl)(phenyl)-Acetamides” (International Journal of Molecular Sciences, 2021)
# Columns and labels:
# mice [1] = experiment: Grip strength test (neuromuscular strength); type: in vivo, mouse; details: 30 min
# Procedure: Figure 3 Acute effect of compound 14 on the neuromuscular strength in mice. Compound 14 was administered i.p. 30 min before the test. Control animals received vehicle only. Each experimental group consisted of 10 animals. Each bar represents the mean + S.E.M. grip strengths in Newtons per gram of mouse body weight (N/g). * p < 0.05 vs. the control group (one-way ANOVA, followed by Dunnett’s post hoc test, GraphPad Prism 8.0.1).
# In this study, we used adult male Swiss albino mice (Kołacz, Laboratory Animals Breeding, Warszawa, Poland) license no. 106/2019 (Local Ethical Committee in Lublin). In studies assessing the acute effect of compound 14 on neuromuscular strength, body temperature, and seizure threshold, compound 14 was suspended in a 1% solution of Tween 80 and administered i.p., 30 min before the tests.
# The acute effect of compound 14 on neuromuscular strength was quantified using the grip-strength apparatus (BIOSEB, Chaville, France) according to the method described elsewhere.
# [2] = test system: Cav1.2 channel (dihydropyridine site, antagonist radioligand); experiment: Radioligand binding, Cav1.2 channel (dihydropyridine site); details: rat cerebral cortex
# mice [3] = experiment: Maximal electroshock seizure (MES) test; type: in vivo, mouse; details: mice i.p.
# hepatoma HepG2 cells = experiment: Hepatotoxicity, HepG2 viability (MTS); type: cell-based; details: 72 h; viability affected at 100 µM only
# [4] = target: Cav1.2 (h) calcium ion channel (Homo sapiens, UniProt Q13936); experiment: Cav1.2 calcium ion channel cell based antagonist calcium flux assay; details: HEK293, read-out: % Inhibition of Control Agonist Response, Cav1.2 (h) calcium ion channel cell based antagonist calcium flux assay
# [5] = test system: TTX-sensitive Na+ channel; experiment: Radioligand binding, TTX-sensitive Na+ channel; details: rat cerebral cortex
# mice [6] = experiment: Oxaliplatin-induced peripheral neuropathy, tactile allodynia (von Frey); type: in vivo, mouse; details: for pain sensitivity threshold (von Frey), early phase / pain threshold as % of the baseline value, early phase: 3 h after oxaliplatin; for pain threshold (von Frey), late phase / pain threshold as % of the baseline value, late phase: 7 days after oxaliplatin
# Excerpt: To investigate the analgesic activity of compound 14 in neuropathic pain, we used the OXPT-induced peripheral neuropathy model. OXPT directly affects neurons, which results in the upregulation of TRPM8 and TRPA1 and the downregulation of Kv4.3 neuronal channels. Moreover, OXPT forms adduct with mitochondrial DNA and, in this way, change the expression of membrane-associated protein such as channels. All these effects finally lead to peripheral and central sensitization. The neuropathy manifests as the decrease in the pain threshold and can be observed in hours or in days after OXPT administration, which is called the early or late phase of neuropathic pain, respectively. We tested the influence of compound 14 on tactile allodynia using the von Frey method 3 h and 7 days after the induction of neuropathy. In the early phase, we observed a significant decrease in the value of mean force that caused a paw withdrawal reaction (1.84 ± 0.05 g) (60.9% of the baseline) compared to non-treated animals (3.02 ± 0.07 g) (the baseline). In the late phase, the pain threshold was 1.97 ± 0.07 (65.2% of the baseline). The observed tactile allodynia was attenuated by compound 14, which elevated the pain sensitivity threshold in the early phase in a dose-dependent manner. (Figure 7) (2.61 ± 0.08 g, 2.94 ± 0.04 g, and 3.05 ± 0.08 g at the dose of 40 mg/kg, 60 mg/kg, and 80 mg/kg, respectively, which corresponded to 86.4%, 97.3%, and 100.9% of the baseline value). In the late phase, the pain threshold values were 2.45 ± 0.06 g, 2.88 ± 0.04 g, and 2.98 ± 0.06 g, which corresponded to 81.1%, 95.3%, and 98.6% of the baseline value.
# The experiments were conducted on adult male Albino Swiss mice (CD-1, 18–25 g) and male Wistar rats (Krf:(WI) WU), 180–250 g) as described previously. The minimum number of animals used needed to obtain definite and normally distributed results with the utilized test. Behavioral measures were scored by trained observers, which were blind to experimental conditions. The following devices were used in the experiments: Analgesy Meter (37215, Ugo Basile), Plantar Test Apparatus (EFV5, Commat Ltd., Turkey), Plethysmometer (Plethysmometer 7140, Ugo Basile), Electronic von Frey unit (BIOSEB, France). All procedures were performed according to the European Union Directive of 22 September 2010 (2010/63/EU) and approved by the Local Ethics Committee for Experiments on Animals in Krakow, Poland (resolution no. 105/2016).
# Figure 7 Antiallodynic effects of compound 14 in the tactile allodynia evaluated in the von Frey test in oxaliplatin-induced peripheral neuropathy. Statistical analysis: repeated measures analysis of variance (ANOVA), followed by Dunnett’s post hoc comparison: *** p < 0.001, **** p < 0.0001 (GraphPad Prism 8.0.1). Results obtained before the treatment with oxaliplatin (the gray bar) and after the treatment with oxaliplatin and the compound (post compound 14, the red bars) were compared to the results obtained after the treatment with oxaliplatin and before the administration of the compound (pre compound 14; the white bars).
# SH-SY5Y viability (MTS) = type: cell-based; details: human, neuroblastoma SH-SY5Y cells
# mice [7] = experiment: Psychomotor 6 Hz (32 mA) seizure test; type: in vivo, mouse; details: mice i.p.
# [8] = Mus musculus, ip, 95% confidence interval in parentheses
# Chain of Cav1.2 (h) calcium ion channel (Q13936 whole entry): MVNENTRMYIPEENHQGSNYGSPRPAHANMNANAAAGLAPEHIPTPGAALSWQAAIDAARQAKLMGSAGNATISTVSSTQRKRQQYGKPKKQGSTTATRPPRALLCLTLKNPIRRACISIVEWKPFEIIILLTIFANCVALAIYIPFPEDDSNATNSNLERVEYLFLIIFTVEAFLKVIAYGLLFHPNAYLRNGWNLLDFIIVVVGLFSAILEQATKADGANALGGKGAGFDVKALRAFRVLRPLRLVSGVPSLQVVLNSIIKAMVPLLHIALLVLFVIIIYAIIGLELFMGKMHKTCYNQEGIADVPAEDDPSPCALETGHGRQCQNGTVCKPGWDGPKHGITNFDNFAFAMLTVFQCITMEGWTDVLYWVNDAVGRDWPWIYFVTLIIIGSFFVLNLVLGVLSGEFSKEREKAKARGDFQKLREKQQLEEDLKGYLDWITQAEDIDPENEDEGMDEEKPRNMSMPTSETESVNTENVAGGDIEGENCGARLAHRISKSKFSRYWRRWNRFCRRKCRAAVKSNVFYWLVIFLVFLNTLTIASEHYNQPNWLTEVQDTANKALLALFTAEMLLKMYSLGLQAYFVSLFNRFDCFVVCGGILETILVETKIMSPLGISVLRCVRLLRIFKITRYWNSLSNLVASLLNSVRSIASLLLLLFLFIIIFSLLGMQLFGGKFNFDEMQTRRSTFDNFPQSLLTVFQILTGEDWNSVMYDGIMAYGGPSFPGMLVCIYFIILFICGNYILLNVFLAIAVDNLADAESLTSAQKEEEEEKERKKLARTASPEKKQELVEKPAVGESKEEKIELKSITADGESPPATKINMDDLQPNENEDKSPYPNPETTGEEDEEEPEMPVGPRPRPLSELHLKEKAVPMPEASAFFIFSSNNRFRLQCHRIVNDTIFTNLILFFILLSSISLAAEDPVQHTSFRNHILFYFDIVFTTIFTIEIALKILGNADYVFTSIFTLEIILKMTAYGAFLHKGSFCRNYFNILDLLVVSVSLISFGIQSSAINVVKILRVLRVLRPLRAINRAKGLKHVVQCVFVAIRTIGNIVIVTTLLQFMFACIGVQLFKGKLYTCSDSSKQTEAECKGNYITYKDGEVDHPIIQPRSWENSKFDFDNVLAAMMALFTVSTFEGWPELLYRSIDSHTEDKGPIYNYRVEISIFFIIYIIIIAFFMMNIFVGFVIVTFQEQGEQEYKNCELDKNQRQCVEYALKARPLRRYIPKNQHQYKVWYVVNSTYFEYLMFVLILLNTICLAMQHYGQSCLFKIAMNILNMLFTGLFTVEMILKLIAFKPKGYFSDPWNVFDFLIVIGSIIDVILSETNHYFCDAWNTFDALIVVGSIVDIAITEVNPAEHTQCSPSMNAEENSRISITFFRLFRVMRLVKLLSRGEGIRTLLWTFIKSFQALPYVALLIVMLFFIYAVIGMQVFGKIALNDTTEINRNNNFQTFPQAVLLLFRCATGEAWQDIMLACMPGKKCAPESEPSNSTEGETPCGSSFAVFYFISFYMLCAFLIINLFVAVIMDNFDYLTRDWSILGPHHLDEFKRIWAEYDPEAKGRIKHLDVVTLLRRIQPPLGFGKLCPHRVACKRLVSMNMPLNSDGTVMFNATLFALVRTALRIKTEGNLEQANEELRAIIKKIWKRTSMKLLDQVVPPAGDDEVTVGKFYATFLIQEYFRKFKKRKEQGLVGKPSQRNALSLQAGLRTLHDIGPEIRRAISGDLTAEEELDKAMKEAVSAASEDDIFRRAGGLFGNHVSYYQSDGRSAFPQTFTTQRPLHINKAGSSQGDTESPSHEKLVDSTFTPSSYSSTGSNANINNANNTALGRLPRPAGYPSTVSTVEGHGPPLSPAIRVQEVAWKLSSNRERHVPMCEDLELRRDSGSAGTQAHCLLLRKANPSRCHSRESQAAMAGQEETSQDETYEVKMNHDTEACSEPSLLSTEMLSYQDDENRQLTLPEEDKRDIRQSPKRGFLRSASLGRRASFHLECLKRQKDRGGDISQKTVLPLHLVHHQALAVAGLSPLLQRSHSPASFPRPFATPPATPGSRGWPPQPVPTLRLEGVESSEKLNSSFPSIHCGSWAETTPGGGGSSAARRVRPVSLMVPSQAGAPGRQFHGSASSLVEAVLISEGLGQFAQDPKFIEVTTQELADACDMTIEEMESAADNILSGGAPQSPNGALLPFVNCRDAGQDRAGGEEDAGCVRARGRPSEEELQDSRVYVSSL
# Chain of Cav1.2 (h) calcium ion channel (Q08289 whole entry partner): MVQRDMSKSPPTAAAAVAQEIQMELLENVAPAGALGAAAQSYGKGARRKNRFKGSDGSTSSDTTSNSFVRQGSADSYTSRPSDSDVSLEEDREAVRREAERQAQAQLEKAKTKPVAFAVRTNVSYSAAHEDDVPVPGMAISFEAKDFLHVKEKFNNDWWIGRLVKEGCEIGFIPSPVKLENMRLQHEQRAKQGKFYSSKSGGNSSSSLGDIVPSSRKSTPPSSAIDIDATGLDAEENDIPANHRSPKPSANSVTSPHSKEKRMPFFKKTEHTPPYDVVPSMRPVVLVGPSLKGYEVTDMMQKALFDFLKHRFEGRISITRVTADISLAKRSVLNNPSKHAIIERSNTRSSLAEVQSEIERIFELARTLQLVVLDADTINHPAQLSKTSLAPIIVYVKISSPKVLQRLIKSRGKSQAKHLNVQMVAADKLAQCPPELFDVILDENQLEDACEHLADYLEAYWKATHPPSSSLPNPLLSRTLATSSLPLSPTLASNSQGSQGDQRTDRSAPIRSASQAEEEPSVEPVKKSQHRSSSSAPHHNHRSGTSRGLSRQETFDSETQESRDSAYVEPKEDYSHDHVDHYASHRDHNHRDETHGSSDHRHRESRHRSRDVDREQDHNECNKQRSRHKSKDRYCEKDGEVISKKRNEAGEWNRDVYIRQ
# Chain of Cav1.2 (h) calcium ion channel (P54289 25-956 partner limits assumed): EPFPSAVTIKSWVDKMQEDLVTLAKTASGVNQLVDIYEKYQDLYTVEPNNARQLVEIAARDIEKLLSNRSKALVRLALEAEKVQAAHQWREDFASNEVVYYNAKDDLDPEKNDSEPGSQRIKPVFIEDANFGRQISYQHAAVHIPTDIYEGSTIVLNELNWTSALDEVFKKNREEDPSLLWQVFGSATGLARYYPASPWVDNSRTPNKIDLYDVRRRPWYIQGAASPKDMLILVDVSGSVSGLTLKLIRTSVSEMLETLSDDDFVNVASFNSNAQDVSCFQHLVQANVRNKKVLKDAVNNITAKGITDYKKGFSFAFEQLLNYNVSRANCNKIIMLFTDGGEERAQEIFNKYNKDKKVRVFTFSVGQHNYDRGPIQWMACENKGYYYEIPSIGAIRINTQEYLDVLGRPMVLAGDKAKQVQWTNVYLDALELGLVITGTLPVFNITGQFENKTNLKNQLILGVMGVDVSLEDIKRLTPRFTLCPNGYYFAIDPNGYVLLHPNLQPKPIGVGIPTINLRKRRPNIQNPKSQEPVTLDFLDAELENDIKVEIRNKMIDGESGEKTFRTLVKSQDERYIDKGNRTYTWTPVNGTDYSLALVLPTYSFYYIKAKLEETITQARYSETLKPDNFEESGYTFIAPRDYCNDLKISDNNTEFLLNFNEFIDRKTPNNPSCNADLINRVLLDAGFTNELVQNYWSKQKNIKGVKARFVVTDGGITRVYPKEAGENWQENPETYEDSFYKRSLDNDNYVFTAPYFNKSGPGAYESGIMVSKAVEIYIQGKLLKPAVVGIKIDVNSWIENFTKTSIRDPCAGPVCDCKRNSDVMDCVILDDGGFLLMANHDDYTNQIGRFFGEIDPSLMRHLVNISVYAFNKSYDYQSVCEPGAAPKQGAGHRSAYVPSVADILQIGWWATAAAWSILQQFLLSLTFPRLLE
# Chain of Cav1.2 (h) calcium ion channel (P54289 957-1103 partner limits assumed): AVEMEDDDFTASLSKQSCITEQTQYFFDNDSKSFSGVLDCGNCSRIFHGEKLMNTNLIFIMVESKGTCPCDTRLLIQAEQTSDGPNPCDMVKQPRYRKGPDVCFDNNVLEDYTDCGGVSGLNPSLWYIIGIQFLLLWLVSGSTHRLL
smiles,measurement,setting,value
"CN(C)C1CC(=O)N(C(C(=O)N2CCN(c3cccc(C(F)(F)F)c3)CC2)c2ccccc2)C1=O.Cl (centres unmarked) [Compound 14, 3-(Dimethylamino)-1-(2-oxo-1-phenyl-2-(4-(3-(trifluoromethyl)phenyl)-piperazin-1-yl)ethyl)pyrrolidine-2,5-dione hydrochloride]",effect on neuromuscular strength (grip strength),mice [1]; 30 mg/kg i.p.,did not significantly affect
same,effect on grip strength,"mice [1]; 60 mg/kg i.p., p < 0.05 (Dunnett)",significantly decreased
same,"% Inhibition of Control-Specific Binding, Cav1.2 channel (dihydropyridine site, antagonist radioligand)",[2]; 10 µM,6.0%
same,"% Inhibition of Control-Specific Binding, Cav1.2 channel (dihydropyridine site, antagonist radioligand)",[2]; 50 µM,75.4%
same,ED50,mice [3]; [8],49.6 mg/kg
same,MES screening: number of mice protected / number of mice tested,"mice [3]; 100 mg/kg, 0.5 h",4/4
same,protection in the MES test,"mice [3]; 100 mg/kg, 0.5 h",100%
same,hepatotoxicity (HepG2 viability),hepatoma HepG2 cells,generally non-toxic
same,inhibition at 10 µM,[4],29%
same,"% Inhibition of Control-Specific Binding, TTX-sensitive Na+ channel",[5]; 10 µM,31.0%
same,"% Inhibition of Control-Specific Binding, TTX-sensitive Na+ channel",[5]; 50 µM,90.3%
same,"pain sensitivity threshold (von Frey), early phase",mice [6]; 40 mg/kg,2.61 ± 0.08 g
same,"pain threshold as % of the baseline value, early phase",mice [6]; 40 mg/kg,86.4%
same,"pain threshold (von Frey), late phase",mice [6]; 40 mg/kg,2.45 ± 0.06 g
same,"pain threshold as % of the baseline value, late phase",mice [6]; 40 mg/kg,81.1%
same,"pain sensitivity threshold (von Frey), early phase",mice [6]; 60 mg/kg,2.94 ± 0.04 g
same,"pain threshold as % of the baseline value, early phase",mice [6]; 60 mg/kg,97.3%
same,"pain threshold (von Frey), late phase",mice [6]; 60 mg/kg,2.88 ± 0.04 g
same,"pain threshold as % of the baseline value, late phase",mice [6]; 60 mg/kg,95.3%
same,"pain sensitivity threshold (von Frey), early phase",mice [6]; 80 mg/kg,3.05 ± 0.08 g
same,"pain threshold as % of the baseline value, early phase",mice [6]; 80 mg/kg,100.9%
same,"pain threshold (von Frey), late phase",mice [6]; 80 mg/kg,2.98 ± 0.06 g
same,"pain threshold as % of the baseline value, late phase",mice [6]; 80 mg/kg,98.6%
same,melting point,,157.8 to 159.2 °C
same,"viability at 72 h, 0.001 µM","SH-SY5Y viability (MTS); 0.001 µM, read-out: SH-SY5Y cell viability, % of the control",≤ 120%
same,"viability at 72 h, 10 µM","SH-SY5Y viability (MTS); 10 µM, read-out: SH-SY5Y cell viability, % of control",140%
same,ED50,mice [7]; [8],31.3 mg/kg
same,6 Hz (32 mA) screening: number of mice protected / number of mice tested,"mice [7]; 100 mg/kg, 0.5 h",3/4
same,protection in the 6 Hz (32 mA) test,"mice [7]; 100 mg/kg, 0.5 h",75%
